Assay results as given in PubChem BioAssay AID2060508 (Molecular Pharmacology Branch, DTP, NCI, 2025).
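Further: spheroids exposed to compounds for seven days.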

Each molecule was assayed on 454973-116-R2-J3-PDC spheroids, viability, % test/control (assay: Anticancer human tumor 454973-116-R2-J3-PDC patient-derived pancreatic carcinoma cell line growth inhibition [GQUAD]). Details: curve of first compound; second compound 0.0316 µM; spheroids with HUVEC and MSC.
Summary of the method: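 Multi-cell-type spheroids of tumor cells with HUVEC and mesenchymal stem cells, treated with drug combinations. Concentrations descend in half-log steps from near clinical Cmax, or from 10 microM where Cmax is unknown; viability read-out.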
Molecule `CC(C)(O)C1CCC(Nc2ccc3ncc(-c4cccc(C(F)(F)F)c4)n3n2)CC1` (stereo unspecified) + CN(C)c1ccc(Nc2c3ccc(NC(=O)CCN4CCCC4)cc3nc3cc(NC(=O)CCN4CCCC4)ccc23)cc1 has an IC50 of 1780 nM.
Work on `COc1ncnc(C2CC2)c1-c1ncc2cnn(Cc3ccc(-c4nc(C(F)(F)F)cn4C(C)C)cc3)c2n1` + CN(C)c1ccc(Nc2c3ccc(NC(=O)CCN4CCCC4)cc3nc3cc(NC(=O)CCN4CCCC4)ccc23)cc1 yielded an IC50 greater than 10000 nM.
Molecule `O=C(NO)c1cnc(N2CCN(S(=O)(=O)c3ccc4ccccc4c3)CC2)nc1` + CN(C)c1ccc(Nc2c3ccc(NC(=O)CCN4CCCC4)cc3nc3cc(NC(=O)CCN4CCCC4)ccc23)cc1 has an IC50 of 212 nM.
With `CC(C)n1c(=O)n(C)c2cnc3cc(F)c(-c4ccc(OCCCN5CCCCC5)nc4)cc3c21` + Cc1[nH]c2ccc(F)cc2c1-c1nc2c3cccnc3c3ncccc3c2[nH]1 the IC50 was greater than 10000 nM.
For `CC1COCCN1c1cc(-c2ccnn2C)c2ccnc(-c3ccn[nH]3)c2n1` (stereo unspecified) + Cc1[nH]c2ccc(F)cc2c1-c1nc2c3cccnc3c3ncccc3c2[nH]1, the IC50 was 162 nM.
Molecule `CC1COCCN1c1cc(C2(S(C)(=N)=O)CC2)nc(-c2ccnc3[nH]ccc23)n1` (stereo unspecified) + Cc1[nH]c2ccc(F)cc2c1-c1nc2c3cccnc3c3ncccc3c2[nH]1 has an IC50 of 5870 nM.
`COc1ccc([C@@H](O)c2cc(-c3ncnc4cc(N5CCOCC5)ccc34)c(F)cc2Cl)nn1` + Cc1[nH]c2ccc(F)cc2c1-c1nc2c3cccnc3c3ncccc3c2[nH]1 gave an IC50 of 7420 nM.

Same assay, conditions: curve of first compound; second compound 0.1 µM; spheroids with HUVEC and MSC
Work on `CC(C)(O)C1CCC(Nc2ccc3ncc(-c4cccc(C(F)(F)F)c4)n3n2)CC1` (stereo unspecified) + CN(C)c1ccc(Nc2c3ccc(NC(=O)CCN4CCCC4)cc3nc3cc(NC(=O)CCN4CCCC4)ccc23)cc1 yielded an IC50 of 1730 nM.
In the case of `COc1ncnc(C2CC2)c1-c1ncc2cnn(Cc3ccc(-c4nc(C(F)(F)F)cn4C(C)C)cc3)c2n1` + CN(C)c1ccc(Nc2c3ccc(NC(=O)CCN4CCCC4)cc3nc3cc(NC(=O)CCN4CCCC4)ccc23)cc1, the IC50 is reported as greater than 10000 nM.
Molecule `O=C(NO)c1cnc(N2CCN(S(=O)(=O)c3ccc4ccccc4c3)CC2)nc1` + CN(C)c1ccc(Nc2c3ccc(NC(=O)CCN4CCCC4)cc3nc3cc(NC(=O)CCN4CCCC4)ccc23)cc1 has an IC50 of 202 nM.
For `CC(C)n1c(=O)n(C)c2cnc3cc(F)c(-c4ccc(OCCCN5CCCCC5)nc4)cc3c21` + Cc1[nH]c2ccc(F)cc2c1-c1nc2c3cccnc3c3ncccc3c2[nH]1, the IC50 was greater than 10000 nM.
`CC1COCCN1c1cc(-c2ccnn2C)c2ccnc(-c3ccn[nH]3)c2n1` (stereo unspecified) + Cc1[nH]c2ccc(F)cc2c1-c1nc2c3cccnc3c3ncccc3c2[nH]1 was tested, and the IC50 was 171 nM.
With `CC1COCCN1c1cc(C2(S(C)(=N)=O)CC2)nc(-c2ccnc3[nH]ccc23)n1` (stereo unspecified) + Cc1[nH]c2ccc(F)cc2c1-c1nc2c3cccnc3c3ncccc3c2[nH]1 the IC50 was 5360 nM.
`COc1ccc([C@@H](O)c2cc(-c3ncnc4cc(N5CCOCC5)ccc34)c(F)cc2Cl)nn1` + Cc1[nH]c2ccc(F)cc2c1-c1nc2c3cccnc3c3ncccc3c2[nH]1 showed an IC50 greater than 10000 nM.

Same assay, conditions: curve of first compound; second compound 0.316 µM; spheroids with HUVEC and MSC
Work on `CC(C)(O)C1CCC(Nc2ccc3ncc(-c4cccc(C(F)(F)F)c4)n3n2)CC1` (stereo unspecified) + CN(C)c1ccc(Nc2c3ccc(NC(=O)CCN4CCCC4)cc3nc3cc(NC(=O)CCN4CCCC4)ccc23)cc1 yielded an IC50 of 1540 nM.
With `COc1ncnc(C2CC2)c1-c1ncc2cnn(Cc3ccc(-c4nc(C(F)(F)F)cn4C(C)C)cc3)c2n1` + CN(C)c1ccc(Nc2c3ccc(NC(=O)CCN4CCCC4)cc3nc3cc(NC(=O)CCN4CCCC4)ccc23)cc1 the IC50 was greater than 10000 nM.
For `O=C(NO)c1cnc(N2CCN(S(=O)(=O)c3ccc4ccccc4c3)CC2)nc1` + CN(C)c1ccc(Nc2c3ccc(NC(=O)CCN4CCCC4)cc3nc3cc(NC(=O)CCN4CCCC4)ccc23)cc1, the IC50 was 197 nM.
For `CC(C)n1c(=O)n(C)c2cnc3cc(F)c(-c4ccc(OCCCN5CCCCC5)nc4)cc3c21` + Cc1[nH]c2ccc(F)cc2c1-c1nc2c3cccnc3c3ncccc3c2[nH]1, the IC50 was greater than 10000 nM.
In the case of `CC1COCCN1c1cc(-c2ccnn2C)c2ccnc(-c3ccn[nH]3)c2n1` (stereo unspecified) + Cc1[nH]c2ccc(F)cc2c1-c1nc2c3cccnc3c3ncccc3c2[nH]1, the IC50 is reported as 168 nM.
For `CC1COCCN1c1cc(C2(S(C)(=N)=O)CC2)nc(-c2ccnc3[nH]ccc23)n1` (stereo unspecified) + Cc1[nH]c2ccc(F)cc2c1-c1nc2c3cccnc3c3ncccc3c2[nH]1, the IC50 was 5070 nM.
`COc1ccc([C@@H](O)c2cc(-c3ncnc4cc(N5CCOCC5)ccc34)c(F)cc2Cl)nn1` + Cc1[nH]c2ccc(F)cc2c1-c1nc2c3cccnc3c3ncccc3c2[nH]1 gave an IC50 greater than 10000 nM.

Same assay, conditions: curve of first compound; second compound 1 µM; spheroids with HUVEC and MSC
`CC(C)(O)C1CCC(Nc2ccc3ncc(-c4cccc(C(F)(F)F)c4)n3n2)CC1` (stereo unspecified) + CN(C)c1ccc(Nc2c3ccc(NC(=O)CCN4CCCC4)cc3nc3cc(NC(=O)CCN4CCCC4)ccc23)cc1 was tested, and the IC50 was 1250 nM.
`COc1ncnc(C2CC2)c1-c1ncc2cnn(Cc3ccc(-c4nc(C(F)(F)F)cn4C(C)C)cc3)c2n1` + CN(C)c1ccc(Nc2c3ccc(NC(=O)CCN4CCCC4)cc3nc3cc(NC(=O)CCN4CCCC4)ccc23)cc1 gave an IC50 greater than 10000 nM.
In the case of `O=C(NO)c1cnc(N2CCN(S(=O)(=O)c3ccc4ccccc4c3)CC2)nc1` + CN(C)c1ccc(Nc2c3ccc(NC(=O)CCN4CCCC4)cc3nc3cc(NC(=O)CCN4CCCC4)ccc23)cc1, the IC50 is reported as 195 nM.
Molecule `CC(C)n1c(=O)n(C)c2cnc3cc(F)c(-c4ccc(OCCCN5CCCCC5)nc4)cc3c21` + Cc1[nH]c2ccc(F)cc2c1-c1nc2c3cccnc3c3ncccc3c2[nH]1 has an IC50 greater than 10000 nM.
Molecule `CC1COCCN1c1cc(-c2ccnn2C)c2ccnc(-c3ccn[nH]3)c2n1` (stereo unspecified) + Cc1[nH]c2ccc(F)cc2c1-c1nc2c3cccnc3c3ncccc3c2[nH]1 has an IC50 of 158 nM.
With `CC1COCCN1c1cc(C2(S(C)(=N)=O)CC2)nc(-c2ccnc3[nH]ccc23)n1` (stereo unspecified) + Cc1[nH]c2ccc(F)cc2c1-c1nc2c3cccnc3c3ncccc3c2[nH]1 the IC50 was 6490 nM.
With `COc1ccc([C@@H](O)c2cc(-c3ncnc4cc(N5CCOCC5)ccc34)c(F)cc2Cl)nn1` + Cc1[nH]c2ccc(F)cc2c1-c1nc2c3cccnc3c3ncccc3c2[nH]1 the IC50 was 9540 nM.

Same assay, conditions: curve of first compound; second compound 3.16 µM; spheroids with HUVEC and MSC
`CC(C)(O)C1CCC(Nc2ccc3ncc(-c4cccc(C(F)(F)F)c4)n3n2)CC1` (stereo unspecified) + CN(C)c1ccc(Nc2c3ccc(NC(=O)CCN4CCCC4)cc3nc3cc(NC(=O)CCN4CCCC4)ccc23)cc1 showed an IC50 of 739 nM.
In the case of `COc1ncnc(C2CC2)c1-c1ncc2cnn(Cc3ccc(-c4nc(C(F)(F)F)cn4C(C)C)cc3)c2n1` + CN(C)c1ccc(Nc2c3ccc(NC(=O)CCN4CCCC4)cc3nc3cc(NC(=O)CCN4CCCC4)ccc23)cc1, the IC50 is reported as greater than 10000 nM.
Molecule `O=C(NO)c1cnc(N2CCN(S(=O)(=O)c3ccc4ccccc4c3)CC2)nc1` + CN(C)c1ccc(Nc2c3ccc(NC(=O)CCN4CCCC4)cc3nc3cc(NC(=O)CCN4CCCC4)ccc23)cc1 has an IC50 of 178 nM.
Molecule `CC(C)n1c(=O)n(C)c2cnc3cc(F)c(-c4ccc(OCCCN5CCCCC5)nc4)cc3c21` + Cc1[nH]c2ccc(F)cc2c1-c1nc2c3cccnc3c3ncccc3c2[nH]1 has an IC50 greater than 10000 nM.
`CC1COCCN1c1cc(-c2ccnn2C)c2ccnc(-c3ccn[nH]3)c2n1` (stereo unspecified) + Cc1[nH]c2ccc(F)cc2c1-c1nc2c3cccnc3c3ncccc3c2[nH]1 was tested, and the IC50 was 116 nM.
`CC1COCCN1c1cc(C2(S(C)(=N)=O)CC2)nc(-c2ccnc3[nH]ccc23)n1` (stereo unspecified) + Cc1[nH]c2ccc(F)cc2c1-c1nc2c3cccnc3c3ncccc3c2[nH]1 showed an IC50 of 4680 nM.
In the case of `COc1ccc([C@@H](O)c2cc(-c3ncnc4cc(N5CCOCC5)ccc34)c(F)cc2Cl)nn1` + Cc1[nH]c2ccc(F)cc2c1-c1nc2c3cccnc3c3ncccc3c2[nH]1, the IC50 is reported as greater than 10000 nM.

Same assay, conditions: curve of first compound; second compound 10 µM; spheroids with HUVEC and MSC
With `CC(C)(O)C1CCC(Nc2ccc3ncc(-c4cccc(C(F)(F)F)c4)n3n2)CC1` (stereo unspecified) + CN(C)c1ccc(Nc2c3ccc(NC(=O)CCN4CCCC4)cc3nc3cc(NC(=O)CCN4CCCC4)ccc23)cc1 the IC50 was 808 nM.
